Laboratory results reported in publication PMC8019628, “Acetylcholinesterase Inhibitory and Antioxidant Activity of the Compounds Isolated from Vanda roxburghii” (Advances in Pharmacological and Pharmaceutical Sciences, 2021).
Converted amounts (≈) assume the structure as drawn.

System: lipid peroxidation in mouse brain homogenate
Assay: Lipid peroxidation inhibition assay (TBARS)
Format: biochemical
Settings: ferric ion plus ascorbic acid, mean ± SD (n = 3)
Method: . Catechin was used as a reference antioxidant. Mouse brain homogenate was employed as the source of lipid which was prepared by homogenizing the brain in the phosphate buffer followed by centrifugation at 10,000 g. Lipid peroxidation was induced by ferric ion plus ascorbic acid. The TBARS produced from the reaction of lipid peroxides with thiobarbituric acid was determined colorimetrically at 532 nm. Results were presented as percentage of lipid peroxidation inhibition in relation to the control. The IC50 values were determined from the graph plotted as percent inhibition of lipid peroxidation against concentration of each compound.

Structure (SMILES)	IC50, inhibition of lipid peroxidation
COc1cc(C=O)ccc1O [Compound 3, vanillin]	57.02 ± 2.78 µg/mL
COc1cc(CCCOC(=O)CCc2ccc(O)cc2)ccc1O [Compound 4, dihydroconiferyl dihydro-p-coumarate]	44.20 ± 1.01 µg/mL
CCCCC/C=C\C/C=C\CCCCCCCC(=O)OC [Compound 1, methyl linoleate]	no activity
COc1cc(O)cc(CCc2ccc(O)c(OC)c2)c1 [Compound 5, gigantol]	32.28 ± 1.10 µg/mL
O.Oc1cc(O)c2c(c1)O[C@H](c1ccc(O)c(O)c1)[C@@H](O)C2 [Catechin, reference compound]	14.10 ± 0.43 µg/mL
COc1cc(C=O)cc(OC)c1O [Compound 2, syringaldehyde]	141.60 ± 6.19 µg/mL

System: not listed separately
Assay: DPPH radical scavenging assay
Settings: mean ± SD (n = 3)
Method: The DPPH radical scavenging ability of the compounds was estimated using the method described by Choi et al.. Catechin was used as a standard antioxidant for comparison. Compound at different concentrations was added to a methanolic solution of DPPH (0.135 mM) and vortexed and left for 30 minutes in the dark. The absorbance of the reaction mixture was measured spectrophotometrically at 517 nm. DPPH free radical scavenging ability (%) was calculated by using the following formula:(4) Absorbance of control−Absorbance of sample/Absorbance of control×100.
The result was presented as IC50 value which is the concentration required to cause 50% scavenging. The IC50 value was calculated from the graph plotted as percent scavenging of DPPH free radical against concentration of each compound.

Structure (SMILES)	IC50, DPPH radical scavenging
COc1cc(C=O)ccc1O [Compound 3, vanillin]	19.64 ± 0.73 µg/mL (≈ 129 µM)
COc1cc(CCCOC(=O)CCc2ccc(O)cc2)ccc1O [Compound 4, dihydroconiferyl dihydro-p-coumarate]	12.16 ± 0.55 µg/mL (≈ 36.8 µM)
CCCCC/C=C\C/C=C\CCCCCCCC(=O)OC [Compound 1, methyl linoleate]	no activity
COc1cc(O)cc(CCc2ccc(O)c(OC)c2)c1 [Compound 5, gigantol]	4.16 ± 0.37 µg/mL (≈ 15.2 µM)
O.Oc1cc(O)c2c(c1)O[C@H](c1ccc(O)c(O)c1)[C@@H](O)C2 [Catechin, reference compound]	4.35 ± 0.09 µg/mL
COc1cc(C=O)cc(OC)c1O [Compound 2, syringaldehyde]	40.64 ± 1.68 µg/mL (≈ 223 µM)

System: not listed separately
Assay: Hydroxyl radical scavenging assay (deoxyribose degradation method)
Settings: mean ± SD (n = 3)
Method: The potential of the compounds to scavenge the hydroxyl free radical was assayed by the deoxyribose degradation method as described by Elizabeth and Rao [23]. Catechin was used as a reference antioxidant. Compound at different concentrations was mixed with a reaction mixture containing 2.8 mM 2-deoxy-2-ribose, 20 mM phosphate buffer (pH 7.4), 100 μM FeCl3, 100 μM EDTA, 1.0 mM H2O2, and 100 μM ascorbic acid and incubated at 37°C for 1 hour. This was then followed by the addition of 2.8% trichloro acetic acid (TCA) and 1% TBA. The reaction mixture was heated on a boiling water bath. After cooling, the absorbance was measured at 532 nm against an appropriate blank solution. The result was expressed as percent scavenging of hydroxyl radical in relation to the control. The IC50 values were calculated from the graph plotted as percent scavenging of hydroxyl free radical against concentration of each compound.

Structure (SMILES)	IC50, hydroxyl radical scavenging
COc1cc(C=O)ccc1O [Compound 3, vanillin]	21.72 ± 0.87 µg/mL (≈ 143 µM)
COc1cc(CCCOC(=O)CCc2ccc(O)cc2)ccc1O [Compound 4, dihydroconiferyl dihydro-p-coumarate]	15.07 ± 1.20 µg/mL (≈ 45.6 µM)
CCCCC/C=C\C/C=C\CCCCCCCC(=O)OC [Compound 1, methyl linoleate]	no activity
COc1cc(O)cc(CCc2ccc(O)c(OC)c2)c1 [Compound 5, gigantol]	6.61 ± 0.76 µg/mL (≈ 24.1 µM)
O.Oc1cc(O)c2c(c1)O[C@H](c1ccc(O)c(O)c1)[C@@H](O)C2 [Catechin, reference compound]	9.32 ± 0.39 µg/mL
COc1cc(C=O)cc(OC)c1O [Compound 2, syringaldehyde]	91.05 ± 3.75 µg/mL (≈ 500 µM)

System: not listed separately
Assay: Reducing power assay (Fe+3-ferricyanide reduction)
Settings: 80 μg/ml
Method: The reducing power of the compounds was determined by the method of Oyaizu. The compound (1 ml) was added to a mixture of 0.2 M potassium buffer (2.5 ml) and 1% potassium ferricyanide (2.5 ml) and incubated at 50°C for 20 minutes. Then, 10% TCA solution (2.5 ml) was added to the reaction mixture and centrifuged (3000 rpm) for 10 minutes. Finally, 2.5 ml of solution was mixed with 2.5 ml of double distilled water and 0.5 ml of 0.1% ferric chloride solution. The absorbance of the reaction mixture was recorded at 700 nm. A standard antioxidant catechin was used for comparison.

Structure (SMILES)	Reducing power, absorbance
COc1cc(C=O)ccc1O [Compound 3, vanillin]	0.746 ± 0.005
COc1cc(CCCOC(=O)CCc2ccc(O)cc2)ccc1O [Compound 4, dihydroconiferyl dihydro-p-coumarate]	0.894 ± 0.014
COc1cc(O)cc(CCc2ccc(O)c(OC)c2)c1 [Compound 5, gigantol]	1.865 ± 0.030
COc1cc(C=O)cc(OC)c1O [Compound 2, syringaldehyde]	0.667 ± 0.035

Same assay, conditions: 100 μg/ml, 700 nm (as stated in Figure 4 legend), mean ± SD (n = 3)

Structure (SMILES)	Reducing power, absorbance
COc1cc(C=O)ccc1O [Compound 3, vanillin]	0.746 ± 0.005
COc1cc(CCCOC(=O)CCc2ccc(O)cc2)ccc1O [Compound 4, dihydroconiferyl dihydro-p-coumarate]	0.894 ± 0.014
CCCCC/C=C\C/C=C\CCCCCCCC(=O)OC [Compound 1, methyl linoleate]	no activity
COc1cc(O)cc(CCc2ccc(O)c(OC)c2)c1 [Compound 5, gigantol]	1.865 ± 0.030
O.Oc1cc(O)c2c(c1)O[C@H](c1ccc(O)c(O)c1)[C@@H](O)C2 [Catechin, reference compound]	1.964 ± 0.019
COc1cc(C=O)cc(OC)c1O [Compound 2, syringaldehyde]	0.667 ± 0.035

Target: T1, AChE (Mus musculus, UniProt P21836)
T1 construct: The AChE enzyme was prepared from mouse brain as described earlier; from tissue; host or cells: brain of Swiss albino mice
T1 sequence (P21836 32-614): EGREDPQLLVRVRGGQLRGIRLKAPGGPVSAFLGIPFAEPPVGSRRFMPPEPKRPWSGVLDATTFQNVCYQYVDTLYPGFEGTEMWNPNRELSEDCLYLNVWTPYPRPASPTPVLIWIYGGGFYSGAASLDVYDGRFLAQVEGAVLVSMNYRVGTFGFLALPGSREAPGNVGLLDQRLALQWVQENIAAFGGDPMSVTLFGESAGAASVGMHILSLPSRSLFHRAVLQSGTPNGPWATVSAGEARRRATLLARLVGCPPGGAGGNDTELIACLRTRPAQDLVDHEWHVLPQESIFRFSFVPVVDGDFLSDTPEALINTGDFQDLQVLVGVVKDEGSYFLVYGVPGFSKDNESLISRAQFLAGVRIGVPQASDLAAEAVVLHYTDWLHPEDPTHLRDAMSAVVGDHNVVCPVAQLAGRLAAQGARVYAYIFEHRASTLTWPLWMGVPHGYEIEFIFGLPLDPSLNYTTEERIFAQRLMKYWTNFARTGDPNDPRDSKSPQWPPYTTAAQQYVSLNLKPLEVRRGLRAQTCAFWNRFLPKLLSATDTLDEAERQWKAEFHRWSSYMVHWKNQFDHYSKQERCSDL
Assay: biochemical
Settings: not given
Method: The AChE enzyme was prepared from mouse brain as described earlier. Compound at different concentrations was mixed with AChE solution and incubated at 37°C for 15 min. The rates of hydrolysis by AChE was monitored by spectrophotometer at 405 nm immediately after adding an Ellman's reaction mixture containing 0.5 mM acetylthiocholine and 1 mM 5, 5′-dithio-bis (2-nitro benzoic acid) (DTNB) in a 50 mM phosphate buffer (pH 8.0) to the above reaction mixture. […] The percentage inhibition of AChE activity was calculated using the following formula:(1) Absorbance of control−Absorbance of sample/Absorbance of control×100.
IC50 value could be calculated from the inhibition curve obtained by plotting the percent inhibition values against test concentrations of each compound.
Quality of assay was assessed by using Z' factor as follows:(2) Z′=1−3σc++σc−/μc+−μc−, where σc+ and σc−are the standard deviations of the positive and negative control and μc+ and μc−are the means of the positive and negative control, respectively.

Structure (SMILES)	IC50
COc1cc(C=O)ccc1O [Compound 3, vanillin]	556 µM
COc1cc(C=O)cc(OC)c1O [Compound 2, syringaldehyde]	6960 µM

Same assay, conditions: assay performance of the compound versus control

Structure (SMILES)	Z-factor of acetylcholinesterase inhibitory activity
COc1cc(C=O)ccc1O [Compound 3, vanillin]	0.91
COc1cc(CCCOC(=O)CCc2ccc(O)cc2)ccc1O [Compound 4, dihydroconiferyl dihydro-p-coumarate]	0.87
COc1cc(O)cc(CCc2ccc(O)c(OC)c2)c1 [Compound 5, gigantol]	0.80
COc1cc(C=O)cc(OC)c1O [Compound 2, syringaldehyde]	0.80

Same assay, conditions: mouse brain AChE, acetylthiocholine substrate, mean ± SD (n = 3)

Structure (SMILES)	IC50, inhibition of acetylcholinesterase activity
CCCCC/C=C\C/C=C\CCCCCCCC(=O)OC [Compound 1, methyl linoleate]	no activity

Same assay, conditions: mouse brain AChE, acetylthiocholine substrate, mean ± SD (n = 3); read-out: IC50, inhibition of acetylcholinesterase activity (converted)

Structure (SMILES)	IC50
COc1cc(CCCOC(=O)CCc2ccc(O)cc2)ccc1O [Compound 4, dihydroconiferyl dihydro-p-coumarate]	358 µM
COc1cc(O)cc(CCc2ccc(O)c(OC)c2)c1 [Compound 5, gigantol]	2000 µM

System: not listed separately
Assay: Total antioxidant capacity (reduction of Mo (VI) to Mo (V))
Settings: 80 μg/ml, 695 nm, mean ± SD (n = 3)
Method: The antioxidant capacity of the compounds was assessed by the method as described earlier. The compound was added to a mixture of sulphuric acid (0.6 M), sodium phosphate (28 mM), and ammonium molybdate (4 mM) and heated in a water bath at 95°C for 90 min. After cooling to room temperature, the absorbance of the mixture was recorded at 695 nm against blank. A standard antioxidant catechin was used for comparison.

Structure (SMILES)	Total antioxidant activity, absorbance
COc1cc(C=O)ccc1O [Compound 3, vanillin]	0.716 ± 0.020
COc1cc(CCCOC(=O)CCc2ccc(O)cc2)ccc1O [Compound 4, dihydroconiferyl dihydro-p-coumarate]	0.735 ± 0.022
CCCCC/C=C\C/C=C\CCCCCCCC(=O)OC [Compound 1, methyl linoleate]	no activity
COc1cc(O)cc(CCc2ccc(O)c(OC)c2)c1 [Compound 5, gigantol]	0.848 ± 0.029
O.Oc1cc(O)c2c(c1)O[C@H](c1ccc(O)c(O)c1)[C@@H](O)C2 [Catechin, reference compound]	1.739 ± 0.049
COc1cc(C=O)cc(OC)c1O [Compound 2, syringaldehyde]	0.336 ± 0.009
